In one experiment the target is T1, Lp-PLA2 (Homo sapiens, UniProt Q13093).
T1 construct: Lp-PLA2 was partially purified by density gradient centrifugation of human plasma; from tissue; host or cells: human plasma (pooled active fractions, partially purified)
T1 sequence (Q13093 22-441): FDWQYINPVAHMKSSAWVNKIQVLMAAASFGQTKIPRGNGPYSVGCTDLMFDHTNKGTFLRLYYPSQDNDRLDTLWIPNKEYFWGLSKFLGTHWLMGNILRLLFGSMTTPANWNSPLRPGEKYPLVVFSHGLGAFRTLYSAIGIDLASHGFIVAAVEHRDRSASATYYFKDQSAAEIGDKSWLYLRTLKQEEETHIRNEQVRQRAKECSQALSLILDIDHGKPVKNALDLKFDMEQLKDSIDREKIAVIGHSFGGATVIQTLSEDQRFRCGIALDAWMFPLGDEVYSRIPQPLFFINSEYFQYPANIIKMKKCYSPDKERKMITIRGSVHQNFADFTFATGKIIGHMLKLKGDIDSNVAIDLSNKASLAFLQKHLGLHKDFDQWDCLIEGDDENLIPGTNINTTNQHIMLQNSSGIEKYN
The experiment is described as follows: Screen for Lp-PLA2 inhibition. It counts as biochemical. The note with it: artificial substrate (A) 20 μM, 37° C., pH 7.4, 10 min pre-incubation, 405 nm; enzyme partially purified from human plasma. How it is done: 1. Screen for Lp-PLA2 inhibition.
Enzyme activity was determined by measuring the rate of turnover of the artificial substrate (A) at 37° C. in 50 mM HEPES (N-2-hydroxyethylpiperazine-N'-2-ethanesulphonic acid) buffer containing 150 mM NaCl, pH 7.4. [drawing 7] Assays were performed in 96 well titre plates.
Lp-PLA2 was partially purified by density gradient centrifugation of human plasma. Active fractions were pooled and used as the source of Lp-PLA2. The enzyme was pre-incubated at 37° C. with vehicle or test compound for 10 min in a total volume of 180 μl. The reaction was then initiated by the addition of 20 μl 10× substrate (A) to give a final substrate concentration of 20 μM. The reaction was followed at 405 nm for 20 minutes using a plate reader with automatic mixing. The rate of reaction was measured as the rate of change of absorbance.

The subject of experiment [1] is lyso-PtdCho formation in human LDL. The experiment is described as follows: Inhibition of Cu2+ stimulated lyso-phosphatidylcholine (lyso-PtdCho) formation. The format is biochemical. The note with it: 5 μM Cu2+. How it is done:
2. Inhibition of Cu 2+stimulated lyso-phosphatidylcholine (lyso-PtdCho) formation.
A 1 ml aliquot of human LDL (0.25 mg protein/ml) was incubated for 15 min at 37° C. with compound or vehicle. 5 μM Cu^2+ was then added to allow oxidation/lyso-PtdCho formation to occur. The incubation was terminated by the addition of 3.75 ml chloroform/methanol/c HCl (200:400:5,v/v/v). Following the addition of 1.25 ml chloroform and 1.25 ml 0.1M HCl, the mixture was vortexed and centrifuged. The lower phase was carefully removed and the upper phase re-extracted with an equal volume of synthetic lower phase. The extracts were pooled and dried under nitrogen.
Phospholipids were reconstituted into 50 μl chloroform/methanol (2:1 v/v). 10 μl aliquots were spotted on to pre-run silica gel HPTLC plates and then developed in chloroform/methanol 25-30% methylamine (60:20:5 v/v/v). Plates were subsequently sprayed with the flourescent indicator, 2-p-toluidinylnaphthalene-6-sulphonic acid (1 mM in 50 mM Tris/HCl, pH 7.4) to identify phospholipid components. Fluorescence was measured at 222 nm using a CAMAG TLC scanner. Lipoprotein lyso-PtdCho content was quantified using a standard curve (0.05-0.5 μg) prepared in parallel.

On to `C[C@@H]1C(=O)N(CC(=O)NCCCCCCc2ccccc2)[C@H]1[S+](C)[O-]` (relative stereo) [Example 71, trans-N-(6-phenylhexyl)-(3-methyl-4-methylsulphinyl-2-oxoazetidin-1-yl)acetamide], for which the IC50 against Lp-PLA2 was 30 to 400 nM; in experiment [1] (human LDL 0.25 mg protein/ml, 15 min pre-incubation at 37° C., read-out: IC50 (inhibition of LDL lyso-PtdCho accumulation stimulated by copper ions)) it was approximately 60 nM. Also, the “inhibition of LDL lyso-PtdCho accumulation stimulated by copper ions (in words)” value in experiment [1] (human LDL) is “dose dependently inhibits”.
For `C[S+]([O-])C1CC(=O)N1CC(=O)NCCCCCCc1ccccc1` (centres unmarked) [Example 63, N-6-Phenylbexyl-(4-methylsulphinyl-2-oxoazetidin-1-yl)acetamide], at Lp-PLA2, the IC50 was in the range of 30 to 400 nM.
The same measure, in the same setting: the figure for `CCCC[S+]([O-])C1CC(=O)N1CC(=O)CCc1ccccc1` (centres unmarked) [Example 18, 4-Butylsulfinyl-1-(4-phenyl-2-oxobutyl)azetidin-2-one] is 30 to 400 nM; for `C[S+]([O-])C1CC(=O)N1CCCCc1ccccc1` (centres unmarked) [Example 84, 4-Methylsulfinyl-1-(4-phenylbutyl)-azetidin-2-one] it is 30 to 400 nM.
In turn, `CCCCCC[S+]([O-])C1CC(=O)N1CC(=O)CCc1ccccc1` (single isomer, unassigned) [Example 24, 4-Hexylsulfinyl-1-(4-phenyl-2-oxobutyl)azetidin-2-one] yielded an IC50 on Lp-PLA2 of 30 to 400 nM.
`CCCCCC[S+]([O-])C1CC(=O)N1CC(=O)NCCCCCCc1ccccc1` (single isomer, unassigned) [Example 79, N-(6-Phenylhexyl)-(4-n-hexylsulfinyl-2-oxoazetidin-1-yl)acetamide] returned an IC50 against Lp-PLA2 of 30 to 400 nM.

The record behind these values is US6071899A, “Azetidinone derivatives for the treatment of atherosclerosis” (SmithKline Beecham p.l.c., priority 1994, dated 2000).
